Assay results: ChEMBL document CHEMBL1201862, “PubChem BioAssay data set” (2004)
The source made the active and inactive calls.

Assays:
[1] = target: T1, Nuclear receptor subfamily 0 group B member 1 (Homo sapiens, UniProt P51843); assay: Luminescence-based cell-based high throughput dose response assay for inhibitors of the orphan nuclear receptor subfamily 0, group B, member 1 (DAX1; NR0B1). [Related pubchem assays (depositor defined):AID504766, AID504790]; format: functional
T1 sequence (P51843 whole entry): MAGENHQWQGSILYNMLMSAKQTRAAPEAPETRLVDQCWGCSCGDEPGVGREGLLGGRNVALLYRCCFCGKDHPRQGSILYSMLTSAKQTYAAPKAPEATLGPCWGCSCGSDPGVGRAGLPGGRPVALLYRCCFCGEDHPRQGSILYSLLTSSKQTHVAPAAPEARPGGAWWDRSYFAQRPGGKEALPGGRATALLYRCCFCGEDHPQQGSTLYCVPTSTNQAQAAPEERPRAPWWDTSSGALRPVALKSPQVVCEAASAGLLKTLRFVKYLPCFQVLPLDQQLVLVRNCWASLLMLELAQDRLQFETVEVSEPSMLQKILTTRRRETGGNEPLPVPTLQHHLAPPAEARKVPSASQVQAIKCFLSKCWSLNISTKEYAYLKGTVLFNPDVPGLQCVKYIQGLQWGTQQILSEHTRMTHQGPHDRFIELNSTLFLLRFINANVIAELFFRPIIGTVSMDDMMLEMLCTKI

HEK293 = assay: cells; format: functional, cell-based; settings: Homo sapiens
[2] = target: T2, Sentrin-specific protease 7 (Homo sapiens, UniProt Q9BQF6); assay: inhibition of human SENP7 cleavage activity – biochemical, luminescence, SAR follow-up (AID 504497); format: functional
T2 sequence (Q9BQF6 whole entry): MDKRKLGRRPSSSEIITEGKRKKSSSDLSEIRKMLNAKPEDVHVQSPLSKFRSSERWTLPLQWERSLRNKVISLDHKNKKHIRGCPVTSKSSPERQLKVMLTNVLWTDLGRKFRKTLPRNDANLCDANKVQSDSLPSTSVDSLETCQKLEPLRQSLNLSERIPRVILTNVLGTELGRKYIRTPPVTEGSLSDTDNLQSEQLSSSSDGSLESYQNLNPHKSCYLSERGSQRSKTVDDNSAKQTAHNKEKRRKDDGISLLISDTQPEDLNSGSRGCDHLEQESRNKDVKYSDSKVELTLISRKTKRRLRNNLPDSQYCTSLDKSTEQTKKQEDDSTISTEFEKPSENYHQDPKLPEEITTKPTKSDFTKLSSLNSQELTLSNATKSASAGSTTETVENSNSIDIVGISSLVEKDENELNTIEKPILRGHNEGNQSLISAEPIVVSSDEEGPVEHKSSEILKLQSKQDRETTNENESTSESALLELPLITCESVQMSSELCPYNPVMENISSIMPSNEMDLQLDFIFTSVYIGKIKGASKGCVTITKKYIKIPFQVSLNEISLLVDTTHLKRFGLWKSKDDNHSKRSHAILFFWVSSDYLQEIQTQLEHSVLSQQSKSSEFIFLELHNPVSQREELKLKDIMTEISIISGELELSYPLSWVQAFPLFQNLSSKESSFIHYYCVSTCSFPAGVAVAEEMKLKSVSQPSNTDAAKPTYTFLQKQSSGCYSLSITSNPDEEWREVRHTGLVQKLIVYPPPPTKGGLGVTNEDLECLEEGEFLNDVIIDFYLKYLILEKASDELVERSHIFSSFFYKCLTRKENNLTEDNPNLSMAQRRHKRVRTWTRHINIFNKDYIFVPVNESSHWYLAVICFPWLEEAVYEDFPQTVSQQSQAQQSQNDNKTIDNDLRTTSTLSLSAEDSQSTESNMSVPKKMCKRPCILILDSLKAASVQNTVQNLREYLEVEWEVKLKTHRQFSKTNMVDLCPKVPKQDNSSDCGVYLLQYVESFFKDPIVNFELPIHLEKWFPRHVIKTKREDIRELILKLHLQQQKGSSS

[3] = target: T2, Sentrin-specific protease 7; assay: inhibition of human SENP7 cleavage activity – biochemical, luminescence, set 2, SAR follow-up (AID 588600); format: functional
[4] = viability of HCT116 lacking mutant beta-catenin – cell-based, human colon tumor, dose response (AID 1045); format: functional;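 further: HCT116 colon tumor cells with beta catenin knocked out; cells exposed to compound for 60 hours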
[5] = target: T3, Polyadenylate-binding protein 1 (Homo sapiens, UniProt P11940); assay: MLLE domain peptide-binding blockers, IC50 – biochemical, fluorescence polarization, FITC-PAM2 peptide, dose response (AID 602259); format: functional; settings: read-out: IC50_Mean
Hexokinase-1 = target: T4, Hexokinase-1 (Homo sapiens, UniProt P19367); assay: SAR analysis of small molecule inhibitors of hexokinase domain containing I (HKDC1) in the hexokinase 1 selectivity assay. [Related pubchem assays (depositor defined):AID493160, AID493190]; format: functional
T4 sequence (P19367 whole entry): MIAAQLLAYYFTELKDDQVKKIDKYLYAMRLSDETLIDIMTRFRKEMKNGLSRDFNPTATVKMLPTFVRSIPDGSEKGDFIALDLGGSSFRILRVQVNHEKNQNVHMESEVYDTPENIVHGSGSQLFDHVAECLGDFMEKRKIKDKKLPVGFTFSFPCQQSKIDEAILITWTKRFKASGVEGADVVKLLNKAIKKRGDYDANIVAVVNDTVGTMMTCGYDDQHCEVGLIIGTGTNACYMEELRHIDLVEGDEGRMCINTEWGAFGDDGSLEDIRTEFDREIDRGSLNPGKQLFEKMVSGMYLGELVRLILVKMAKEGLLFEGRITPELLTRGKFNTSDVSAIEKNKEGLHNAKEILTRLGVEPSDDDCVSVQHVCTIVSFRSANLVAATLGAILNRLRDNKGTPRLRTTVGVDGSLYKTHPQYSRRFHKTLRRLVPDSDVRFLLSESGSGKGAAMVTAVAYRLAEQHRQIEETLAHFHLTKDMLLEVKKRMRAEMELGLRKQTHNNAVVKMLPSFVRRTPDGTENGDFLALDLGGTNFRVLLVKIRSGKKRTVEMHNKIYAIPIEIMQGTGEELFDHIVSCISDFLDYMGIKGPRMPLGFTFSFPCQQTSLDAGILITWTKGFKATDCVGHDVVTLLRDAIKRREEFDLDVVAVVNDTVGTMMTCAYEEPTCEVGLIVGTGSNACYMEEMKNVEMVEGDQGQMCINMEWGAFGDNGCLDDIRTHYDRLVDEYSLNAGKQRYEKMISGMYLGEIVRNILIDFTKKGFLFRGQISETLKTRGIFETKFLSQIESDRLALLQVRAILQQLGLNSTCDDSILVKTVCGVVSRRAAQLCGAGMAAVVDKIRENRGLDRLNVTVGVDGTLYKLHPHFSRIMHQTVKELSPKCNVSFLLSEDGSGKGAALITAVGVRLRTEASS

[6] = target: T3, Polyadenylate-binding protein 1; assay: MLLE binding blockers, Cy5 peptide tracer – biochemical, fluorescence polarization, Cy5-PAM2 peptide, secondary, miRNA deadenylation inhibitor project, dose response (AID 602260); format: functional; settings: read-out: IC50_Mean

T3 sequence (P11940 whole entry, the tested form may be a part): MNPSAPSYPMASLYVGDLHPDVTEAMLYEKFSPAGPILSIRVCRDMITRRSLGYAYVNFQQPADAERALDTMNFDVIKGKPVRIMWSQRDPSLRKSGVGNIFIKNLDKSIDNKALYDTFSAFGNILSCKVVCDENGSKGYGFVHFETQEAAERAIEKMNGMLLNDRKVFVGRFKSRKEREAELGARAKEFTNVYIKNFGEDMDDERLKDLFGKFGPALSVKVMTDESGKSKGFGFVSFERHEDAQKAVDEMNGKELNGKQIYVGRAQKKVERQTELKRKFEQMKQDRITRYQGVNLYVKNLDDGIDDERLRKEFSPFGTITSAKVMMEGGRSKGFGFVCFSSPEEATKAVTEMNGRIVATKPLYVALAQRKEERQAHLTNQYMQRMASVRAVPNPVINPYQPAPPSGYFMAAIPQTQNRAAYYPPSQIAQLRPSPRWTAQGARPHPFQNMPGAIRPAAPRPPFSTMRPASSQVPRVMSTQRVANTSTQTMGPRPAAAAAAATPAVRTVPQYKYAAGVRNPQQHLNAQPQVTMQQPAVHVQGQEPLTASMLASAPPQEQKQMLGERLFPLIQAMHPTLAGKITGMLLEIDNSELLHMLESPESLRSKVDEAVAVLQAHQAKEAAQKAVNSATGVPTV

Which IC50 [1] does the source give for `Oc1ccccc1/C=C/c1noc(-c2ccccc2O)n1` here?
The IC50 was > 67.5 µM (inactive).

What about the IC50 (HEK293) of the same compound?
Its IC50 is > 67.5 µM (inactive).

And the IC50 [2]?
Its IC50 is 2.5 µM (active).

What about the EC50 (cells) of the same compound?
Its EC50 is > 67.6 µM (inactive).

What about the IC50 [3] of the same compound?
Its IC50 is 43.8 µM (active).

With `Cc1nn(-c2ccccc2)c(Cl)c1CN(C(=O)CCl)c1ccc(Cl)cc1` as the compound, how does the EC50 [4] read?
Its EC50 is 4.11 µM (active).

With `O=C(O)CSc1cc(NS(=O)(=O)c2ccc(Cl)cc2)c2ccccc2c1O` as the compound, how does the IC50 [5] read?
Its IC50 is > 66 µM (inactive).

And the IC50 (Hexokinase-1)?
Its IC50 is > 80 µM (inactive).

And the IC50 [6]?
The IC50 was > 66 µM (inactive).
